These results are taken from ChEMBL document CHEMBL1134360, “Thiazole and thiadiazole analogues as a novel class of adenosine receptor antagonists” (J Med Chem, 2001).

As a reminder, the Ki is the equilibrium dissociation constant of an inhibitor or competing ligand from its target. Low values mean tighter binding, high ones weaker binding.

For assay [1], the target named is Adenosine receptor A2a (Rattus norvegicus) (UniProt P30543). The experiment in a line: Displacement of [3H]CGS-21680 or [3H]ZM-241,385 binding in adenosine A2A receptor of rat striatal membrane at 10 uM.
Adenosine receptor A2a (Rattus norvegicus), sequence (P30543 whole entry): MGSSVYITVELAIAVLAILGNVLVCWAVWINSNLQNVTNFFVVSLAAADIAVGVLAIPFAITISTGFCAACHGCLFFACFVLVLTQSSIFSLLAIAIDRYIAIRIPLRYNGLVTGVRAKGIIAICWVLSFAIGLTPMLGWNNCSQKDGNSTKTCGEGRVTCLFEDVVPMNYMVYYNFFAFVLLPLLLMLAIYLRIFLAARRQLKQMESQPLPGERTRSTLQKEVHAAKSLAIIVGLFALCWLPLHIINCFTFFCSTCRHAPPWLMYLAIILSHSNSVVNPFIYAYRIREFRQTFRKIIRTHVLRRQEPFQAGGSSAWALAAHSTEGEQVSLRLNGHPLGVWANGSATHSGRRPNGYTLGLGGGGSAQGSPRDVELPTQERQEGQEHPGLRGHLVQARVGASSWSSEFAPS
A further assay addresses T1, Adenosine receptor A3 (Homo sapiens, UniProt P0DMS8).
T1 sequence (P0DMS8 whole entry): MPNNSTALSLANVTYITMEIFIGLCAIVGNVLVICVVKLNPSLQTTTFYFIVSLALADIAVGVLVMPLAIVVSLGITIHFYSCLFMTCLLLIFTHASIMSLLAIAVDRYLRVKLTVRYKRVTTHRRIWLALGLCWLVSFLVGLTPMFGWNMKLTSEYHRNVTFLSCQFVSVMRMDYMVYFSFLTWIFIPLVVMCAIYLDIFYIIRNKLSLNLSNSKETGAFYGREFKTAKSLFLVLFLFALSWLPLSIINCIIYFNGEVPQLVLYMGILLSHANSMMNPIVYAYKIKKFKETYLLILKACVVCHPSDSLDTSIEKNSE
Briefly: Displacement of [125I]AB-MECA from human adenosine A3 receptor expressed in HEK 293 cells. The class given is cell-based, HEK293. (In general: In a radioligand displacement assay an active substance lowers the binding of a labelled ligand.)

Another assay deals with T2, Adenosine receptor A1 (Rattus norvegicus, UniProt P25099).
T2 sequence (P25099 whole entry): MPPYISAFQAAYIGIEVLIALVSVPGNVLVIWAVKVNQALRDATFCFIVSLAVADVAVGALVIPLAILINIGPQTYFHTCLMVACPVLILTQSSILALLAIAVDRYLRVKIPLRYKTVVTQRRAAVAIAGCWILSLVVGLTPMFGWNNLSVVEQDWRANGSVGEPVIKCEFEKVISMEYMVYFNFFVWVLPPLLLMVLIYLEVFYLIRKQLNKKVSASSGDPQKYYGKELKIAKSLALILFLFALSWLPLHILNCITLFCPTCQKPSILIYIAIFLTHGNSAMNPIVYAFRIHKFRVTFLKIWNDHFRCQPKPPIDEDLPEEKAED

Assay [2] addresses T3, Adenosine receptor A1 (Rattus norvegicus) (UniProt P25099).
T3 sequence (whole entry): T2 sequence (P25099 whole entry)
The experiment in a line: Displacement of [3H]DPCPX binding in adenosine A1 receptor of rat brain cortical membrane at a concentration of 10 uM.

The target in assay [3] is T3, Adenosine receptor A1 (Rattus norvegicus). Briefly: Percentage displacement of [3H]DPCPX binding in adenosine A1 receptor of rat brain cortical membrane at a concentration of 10 uM.
Assay [4] has as its target Adenosine receptor A2a (Rattus norvegicus) (UniProt P30543). Briefly: Displacement of [3H]ZM-241385 binding in adenosine A2A receptor of rat striatal membrane at a concentration of 10 uM.
The target is the same in assay [5]. The experiment in a line: Percentage displacement of [3H]-CGS- 21680 binding in adenosine A2A receptor of rat striatal membrane at a concentration of 10 uM.
The target of assay [6] is T4, Adenosine receptor A2a (Rattus norvegicus, UniProt P30543). Briefly: Displacement of [3H]-CGS- 21680 binding in adenosine A2A receptor of rat striatal membrane.
T4 sequence (P30543 whole entry): as the sequence (P30543 whole entry) above
Assay [7] addresses T4, Adenosine receptor A2a. Briefly: Displacement of [3H]-CGS-21,680 or [3H]ZM-241385 binding in adenosine A2A receptor of rat striatal membrane was determined.
Assay [8] deals with T5, Adenosine receptor A3 (Homo sapiens) (UniProt P0DMS8).
T5 sequence (whole entry): T1 sequence (P0DMS8 whole entry)
Briefly: Displacement of [125I]AB-MECA from adenosine A3 receptor expressed in HEK 293 cells at 10 uM. The note with it: HEK293.

For assay [9], the target named is Adenosine receptor A2a (Rattus norvegicus) (UniProt P30543). Briefly: Percent displacement of [3H]-CGS- 21680 binding in adenosine A2A receptor of rat striatal membrane at a concentration of 10 uM.
In assay [10] the target is T3, Adenosine receptor A1 (Rattus norvegicus). The note with it: 10 uM.
Description: Percent displacement of [3H]DPCPX binding in adenosine A1 receptor of rat brain cortical membrane at a concentration of 10 uM

Regarding `Cc1ccc(C(=O)Nc2nc(-c3ccccc3)ns2)cc1`, the Displacement in assay [1] stood at 38.2%. Further, the Ki was 140 nM at Adenosine receptor A3 and 30 nM on Adenosine receptor A1.

Turning to `COc1ccc(C(=O)Nc2cccc(-c3ccccc3)n2)cc1`, the Displacement in assay [2] turned out to be 46%; in assay [1], 16%. In addition, affinity on Adenosine receptor A3 was put at a Ki of 8700 nM.

In the case of `O=C(Nc1ccccc1)Nc1nc(-c2ccccc2)cs1`, the Displacement was 37% in [3] and 19% in [4]. This compound also displayed a Ki on Adenosine receptor A3 of 9900 nM.

For `O=C(Nc1nc(-c2ccccn2)nc2ccccc12)c1ccccc1`, the Displacement is 16% in [3] and 9% in assay [5].

Take `O=C(Nc1nc(-c2ccccc2)ns1)C1CCC(O)CC1` (stereo in doubt; 8n) [listing 1 of 2 here]: the Ki at Adenosine receptor A3 turned out to be 2700 nM; at Adenosine receptor A1 it was 42 nM.

Turning to `COc1ccc(C(=O)Nc2cc(-c3ccccc3)ncn2)cc1`, the Displacement in [1] worked out at 31%. Moreover, at Adenosine receptor A3, affinity was put at a Ki of 800 nM.

On to `COC(=O)C1=C2C=CN(C)C=C2c2nc(-c3ccccc3)nn2C1`, for which the affinity at Adenosine receptor A3 corresponds to a Ki of 170 nM. This lies in the sub-micromolar range.

For the compound `COc1ccccc1NC(=O)Nc1nc(-c2cccnc2)nc2ccccc12`, the figures for the Ki at Adenosine receptor A2a [6], on Adenosine receptor A3 and on Adenosine receptor A1 were over 10 µM, 4 nM and over 10000 nM, respectively.

On to `O=C(Nc1nc(-c2ccccc2)ns1)C1CCC(O)CC1` (stereo in doubt) [listing 1 of 2 here], for which, in assay [1], the Displacement worked out at 37%.

Turning to `O=C(Nc1nc(-c2ccccn2)cs1)c1ccc([N+](=O)[O-])cc1`, the Displacement in [1] turned out to be 29%.

With `COc1ccc(C(=O)Nc2nc(-c3ccccc3)ns2)cc1C`, the Displacement in assay [2] stood at 48%; in assay [1] it was 8%. The same compound returned a Ki at Adenosine receptor A3 of 580 nM.

With `COC1CCC(C(=O)Nc2nc(-c3ccccc3)ns2)CC1` (stereo in doubt; 8l), the Ki turned out to be 2000 nM at Adenosine receptor A2a [7], 5300 nM at Adenosine receptor A3 and 110 nM on Adenosine receptor A1.

In assay [1], `COc1ccc(C(=O)Nc2nc(-c3ccccn3)cs2)cc1` had a Displacement of 40%. The Ki on Adenosine receptor A3 was found to be 1800 nM; at Adenosine receptor A1, 3200 nM.

In assay [5], `O=C(Nc1nc(-c2ccccc2)cc2ccccc12)c1ccccc1` gave a Displacement of 0%. For the same compound, the Ki at Adenosine receptor A3 and at Adenosine receptor A1 was 1200 nM in each case.

Turning to `COc1ccccc1NC(=O)Nc1nc(-c2ccccc2)ns1`, the values for the Displacement in assay [2], in [1] and in assay [8] were 27%, 38% and 20%, respectively.

For the compound `O=C(Nc1nc(-c2ccccc2)ns1)c1ccc([N+](=O)[O-])cc1`, the Displacement in assay [2] turned out to be 34%; in assay [1] it was 5%; in assay [8] it was 28%.

Turning to `COc1ccc(C(=O)NC2=NN(c3ccccc3)CC2)cc1`, the Displacement in [2] was 26%; in assay [1] it was 19%; in [8] it was 41%.

Regarding `O=C(O)COc1ccc(C(=O)Nc2nc(-c3ccccc3)ns2)cc1`, the results for the Ki at Adenosine receptor A2a [7], at Adenosine receptor A3 and at Adenosine receptor A1 were 15000 nM, 1200 nM and 100 nM, respectively.

Turning to `COc1ccc(C(=O)Nc2nc(-c3ccccc3)cc3ccccc23)cc1`, in assay [5], the Displacement was 35%. For the same compound, the Ki is 79 nM on Adenosine receptor A3 and 3000 nM on Adenosine receptor A1.

For the compound `O=C(Nc1nc(-c2ccccc2)nc2ccccc12)c1ccccc1`, the Displacement was found to be 34% in assay [3] and 17% in assay [5]. On Adenosine receptor A3, this compound had a Ki of 240 nM.

Turning to `O=C(Nc1nc(-c2ccccc2)ns1)c1ccccc1`, the figures for the Ki on Adenosine receptor A2a [7], on Adenosine receptor A3 and at Adenosine receptor A1 were 4400 nM, 410 nM and 31 nM, respectively.

Take `CC(C)Oc1ccc(C(=O)Nc2nc(-c3ccccn3)cs2)cc1`: the Displacement in assay [1] worked out at 44%. Also, the Ki at Adenosine receptor A3 came out at 3700 nM; on Adenosine receptor A1, 5800 nM.

Take `O=C(Nc1nc(-c2ccccn2)cs1)c1ccccc1`: the Ki at Adenosine receptor A2a [7] amounted to 8700 nM; at Adenosine receptor A3, 3400 nM; on Adenosine receptor A1 it was 1700 nM.

As for `O=C(Nc1nc(-c2ccccn2)cs1)C1CCCC1`, the Ki at Adenosine receptor A2a [7] was found to be 1300 nM; on Adenosine receptor A3, 2100 nM; on Adenosine receptor A1, 920 nM.

Take `O=C(Nc1nc(-c2ccccc2)ns1)C1CCC(O)CC1` (stereo in doubt) [listing 2 of 2 here]: the Ki worked out at 1900 nM on Adenosine receptor A3 and 20 nM at Adenosine receptor A1.

Take `COc1ccc(NC(=O)Nc2nc(-c3ccccc3)ns2)cc1`: the figures for the Displacement in assay [2] and in [1] were 44% and 16%, respectively. The affinity at Adenosine receptor A3, expressed as Ki, was 3300 nM.

At Adenosine receptor A3, `Nc1nc2ccc(Cl)cc2c2nc(-c3ccco3)nn12` [CGS-15943] displayed a Ki of 140 nM.

Turning to `O=C(Nc1nc(-c2ccccn2)cc2ccccc12)c1ccccc1`, the Displacement in assay [5] was 0%.

`O=C(Nc1nc(-c2ccccc2)ns1)c1ccc(Cl)cc1` returned a Displacement in assay [1] of 36%. The Ki stood at 520 nM at Adenosine receptor A3 and 41 nM on Adenosine receptor A1.

Compound `O=C(Nc1nc(-c2ccccc2)ns1)C1CCCCC1` registered a Displacement in assay [1] of 16%. The Ki came to 16000 nM on Adenosine receptor A3 and 1400 nM at Adenosine receptor A1.

As to `O=C(Nc1ccccc1)Nc1nc(-c2ccccn2)cs1`, the Ki on Adenosine receptor A2a [7] came to 920 nM; on Adenosine receptor A3, 5000 nM; on Adenosine receptor A1, 930 nM.

Consider `O=C(Nc1nc(-c2ccccn2)cs1)c1ccc(Cl)cc1`, for which the Displacement in [1] was determined as 30%.

As to `COc1ccc(C(=O)Nc2cccc(-c3ccccc3)c2)cc1`, the Displacement in assay [2] was 30%; in [1], 41%. This compound displayed a Ki at Adenosine receptor A3 of 10000 nM.

For the compound `Cc1ccc(C(=O)Nc2nc(-c3ccccn3)cs2)cc1`, the Displacement in assay [1] was 44%. Further, the Ki at Adenosine receptor A3 was found to be 3200 nM; on Adenosine receptor A1, 1600 nM.

On to `COc1ccc(NC(=O)Nc2nc(-c3ccccn3)cs2)cc1`, for which the Displacement is 4% in assay [2] and 11% in assay [1]. Further, the Ki at Adenosine receptor A3 is 147000 nM.

In [1], `O=C(Nc1nc(-c2ccccc2)ns1)C1CCC(O)CC1` (stereo in doubt; 8n) [listing 2 of 2 here] showed a Displacement of 41%.

On to `COc1ccc(C(=O)Nc2nc(-c3ccccc3)cs2)cc1`, for which the Ki at Adenosine receptor A2a [7] worked out at 1900 nM; on Adenosine receptor A3, 670 nM; at Adenosine receptor A1, 76 nM.

`COc1ccc(C(=O)Nc2nc(-c3ccccc3)nc3ccccc23)cc1` yielded a Displacement in assay [5] of 44%. Moreover, the Ki came out at 27 nM at Adenosine receptor A3 and 1800 nM at Adenosine receptor A1.

In the case of `COc1ccc(C(=O)Nc2cc(-c3ccccc3)[nH]n2)cc1`, the Displacement in assay [2] turned out to be 20%; in [1], 16%; in assay [8] it was 35%.

With `O=C(Nc1ccccc1)Nc1nc(-c2ccccc2)ns1`, the Displacement in assay [1] was found to be 48%. Also, the Ki at Adenosine receptor A3 came to 4000 nM; at Adenosine receptor A1, 1000 nM.

For `O=C(Nc1nc(-c2ccccc2)ns1)c1ccc(O)cc1`, the Ki amounted to 570 nM at Adenosine receptor A2a [7], 130 nM at Adenosine receptor A3 and 7.3 nM at Adenosine receptor A1.

In assay [1], `O=C(Nc1nc(-c2ccccn2)cs1)c1ccc(I)cc1` came in with a Displacement of 50%.

For the compound `COc1ccc(C(=O)Nc2nc(-c3ccccn3)cc3ccccc23)cc1`, the Ki at Adenosine receptor A2a [6] is over 10 µM; on Adenosine receptor A1, over 10000 nM. The Displacement was 19% in [9] and 37% in assay [10].

Turning to `O=C(Nc1nc(-c2ccccc2)ns1)c1ccc(I)cc1`, the results for the Displacement in assay [2] and in assay [1] were 49% and 19%, respectively. For the same compound, the affinity on Adenosine receptor A3 corresponds to a Ki of 1100 nM.

In the case of `O=C(Nc1nc(-c2ccccn2)cs1)c1cccc(Cl)c1`, the Ki stood at 1300 nM at Adenosine receptor A2a [7], 4600 nM on Adenosine receptor A3 and 1700 nM on Adenosine receptor A1.

In the case of `O=C(Nc1nc(-c2ccccn2)cs1)c1ccc(Cl)c(Cl)c1`, the Displacement in assay [1] turned out to be 20%. Further, the Ki at Adenosine receptor A3 is 2500 nM; at Adenosine receptor A1, 1600 nM.

For `COc1ccc(C(=O)Nc2nc(-c3ccccc3)ns2)cc1`, the Ki came to 2300 nM on Adenosine receptor A2a [7], 82 nM on Adenosine receptor A3 and 32 nM on Adenosine receptor A1.

Turning to `COC1CCC(C(=O)Nc2nc(-c3ccccc3)ns2)CC1` (stereo in doubt; 8k), the Ki at Adenosine receptor A2a [7] turned out to be 1900 nM; at Adenosine receptor A3, 1700 nM; on Adenosine receptor A1, 32 nM.
